Patent US20090076029A1 (Palatin Technologies, Inc., priority 2007, published 2009)
Entries after “also recorded” stand apart in the source; their conditions may differ. Where two headings read alike, the source gives them in different places.

Legend:
MC1-R [1] = biological target: T1, MC1-R; assay: Competitive inhibition assay using [I125]-NDP-α-MSH, MC1-R membranes; type: binding, mouse; settings: for Inhibition at 1 μM (NDP-α-MSH) MC1-R: 1 μM compound
T1 construct: other: 1 μM compound

hMC3-R [2] = biological target: T2, hMC3-R; assay: Competitive inhibition assay using [I125]-NDP-α-MSH, hMC3-R membranes; type: binding, human; settings: for Ki: read-out: Ki (nM) (NDP-α-MSH) MC3-R
T2 construct: expressed in transfected cells; host or cells: HEK-293
Outline: (§1)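 Single-concentration displacement (usually 1 μM compound) of 0.2–0.4 nM [125I]-NDP-α-MSH, run 90 min at room temperature in pH 7.2 HEPES containing MgCl2, CaCl2 and KCl. Receptor sources: transfected HEK-293 membranes for human MC3-R/MC4-R/MC5-R, B-16 mouse melanoma membranes for MC1-R. Bound counts normalised to 1 μM α-MSH-defined specific binding; triplicates averaged, values below 0% set to 0%.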

hMC4-R [3] = biological target: T3, hMC4-R; assay: Competitive inhibition assay using [I125]-NDP-α-MSH, hMC4-R membranes; type: binding, human; settings: for attenuation of binding of α-MSH and AgRP to MC4-R: both ligands (NDP-α-MSH and AgRP), summary
T3 construct: expressed in transfected cells; host or cells: HEK-293

hMC5-R [4] = biological target: T4, hMC5-R; assay: Competitive inhibition assay using [I125]-NDP-α-MSH, hMC5-R membranes; type: binding, human; settings: for Ki: read-out: Ki (nM) (NDP-α-MSH) MC5-R
T4 construct: expressed in transfected cells; host or cells: HEK-293
Outline: as §1

hMC4-R [5] = tested on: T3, hMC4-R; type: binding, human; settings: for Inhibition at 1 μM (AgRP) MC4-R: 1 μM compound
Outline: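 Membranes from hMC4-R-expressing cells incubated 1 h at 37 °C with 0.2 nM [I^125]-AgRP (83-132) and increasing compound in 25 mM HEPES pH 7.5, 100 mM NaCl, 2 mM CaCl2, 2 mM MgCl2, 0.3 mM 1,10-phenanthroline, 0.5% BSA. Filtration, gamma counting; specific binding kept ≤10% of added counts.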

hMC4-R [6] = tested on: T3, hMC4-R; assay: cAMP functional assay in HEK-293 cells expressing MC4-R (agonist, neutral antagonist/Schild); type: cell-based, human; settings: for intrinsic activity at MC4-R: NDP-α-MSH maximal stimulation = 1.0; for functional status at MC4-R: mostly at 1 μM
Outline: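 Cells in EBSS/HEPES pH 7.5 with 0.3 mM IBMX, exposed to compound (0.05-5000 nM, 1% DMSO) for 1 h at 37 °C; cAMP by EIA, EC50 by nonlinear regression. Antagonism: 30 min compound pre-incubation, then 1 nM NDP-α-MSH for 1 h; Schild analysis over 0.005-5000 nM agonist gives pA2.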

MC1-R [7] = tested on: T5, MC1-R; assay: cAMP functional assay, B-16 mouse melanoma cells expressing MC1-R; type: cell-based; settings: cAMP assay at 1 μM
T5 construct: from B-16 mouse melanoma cells (containing MC1-R); endogenous in cells; host or cells: B-16 mouse melanoma cells
Experimental: (§2) General method for EC50 determination in functional activity assay. Functional evaluation of compounds at melanocortin receptors was performed by measuring the accumulation of intracellular cAMP in HEK-293 cells expressing hMC3-R, hMC4-R or hMC5-R, and in B-16 mouse melanoma cells expressing MC1-R. Cells suspended in Earle's Balanced Salt Solution containing 10 mM HEPES (pH 7.5), 5 mM MgCl2, 1 mM glutamine, 0.1% albumin and 0.6 mM 3-isobutyl-1-methyl-xanthine, a phosphodiesterase inhibitor, were plated in 96 well plates at a density of 0.5×10^5 cells per well. Cells were incubated with the test compounds in the presence or absence of α-MSH for 1 hour at 37° C. cAMP levels in the cell lysates were measured using an EIA kit (Amersham). Data analysis and EC50 values were determined using nonlinear regression analysis with Prism Graph-Pad software.
(§3) Functional status. The agonist/antagonist status with respect to MC1-R, MC-3R, MC4-R and MC5-R of certain compounds of the invention was determined.

hMC3-R [8] = tested on: T2, hMC3-R; assay: cAMP functional assay, HEK-293 cells expressing hMC3-R; type: cell-based, human; settings: cAMP assay at 1 μM
Experimental: as §2, §3

hMC5-R [9] = tested on: T4, hMC5-R; assay: cAMP functional assay, HEK-293 cells expressing hMC5-R; type: cell-based, human; settings: cAMP assay at 1 μM
Experimental: as §2, §3

[10] = MC4-R membranes, Table 1, read-out: Ki (nM) I125-NPD-α-MSH
[11] = read-out: Ki (nM) (NDP-α-MSH) MC4-R
[12] = MC4-R membranes, Table 1, read-out: Ki (nM) I125-AgRP
[13] = cAMP assay, read-out: EC50 (nM) at MC4-R

| SMILES | Ki (MC1-R [1]) [nM] | Inhibition at 1 μM (NDP-α-MSH) MC1-R (MC1-R [1]) [%] | Ki (hMC3-R [2]) [nM] | Ki (hMC4-R [3]; [10]) [nM] | attenuation of binding of α-MSH and AgRP to MC4-R (hMC4-R [3]) | Ki (hMC4-R [3]; [11]) [nM] | Ki (hMC5-R [4]) [nM] | Inhibition at 1 μM (AgRP) MC4-R (hMC4-R [5]) [%] | Ki (hMC4-R [5]; [12]) [nM] | Ki (hMC4-R [5]; read-out: Ki (nM) (AgRP) MC4-R) | functional status (pAg, Ag, Antag, Inactive) (hMC4-R [6]; MC4-R, Table 1) | EC50 (hMC4-R [6]; MC4-R, Table 1, read-out: EC50) [nM] | intrinsic activity at MC4-R (hMC4-R [6]) | EC50 (hMC4-R [6]; [13]) [nM] | functional status at MC1-R (MC1-R [7]) | functional status at MC3-R (hMC3-R [8]) | functional status at MC5-R (hMC5-R [9]) | functional status at MC4-R (hMC4-R [6]; cAMP assay) | other results |
| --- | --- | --- | --- | --- | --- | --- | --- | --- | --- | --- | --- | --- | --- | --- | --- | --- | --- | --- | --- |
| C[C@@H]1CN(C(=O)[C@H](N)Cc2ccc3ccccc3c2)[C@@H](CCCNC(=N)N)CN1C(=O)Cc1c[nH]c2ccccc12 [Example 6, N-{3-[1-(2(R)-Amino-3-naphthalen-2-yl-propionyl)-4-(2-1H-indol-3-yl-acetyl)-5(R)-methyl-piperazin-2(S)-yl]-propyl}-guanidine] | 315 | 20 | 1820 | 35 | attenuate the binding of both α-MSH and AgRP to MC4-R | 35 | 1530 | 84 | 83 | 83 | pAg (“pAg” means partial agonist) | > 1000 | 0.2 | > 1000 | no intrinsic activity (intrinsic activity below 0.1 (10%) is classified as inactive or having no intrinsic activity) | no intrinsic activity (intrinsic activity below 0.1 (10%) is classified as inactive or having no intrinsic activity) | partial agonist (intrinsic activity between 0.1 (10%) and 0.7 (70%) is classified as a partial agonist) | – | – |
| C[C@@H]1CN(C(=O)[C@H](N)Cc2ccc3ccccc3c2)[C@@H](CCCNC(=N)N)CN1C(=O)CCCc1c[nH]c2ccccc12 [Example 7] | 1200 | 0 | 657 | 90 | attenuate the binding of both α-MSH and AgRP to MC4-R | 90 | 271 | 82 | 133 | 133 | pAg (“pAg” means partial agonist) | 3800 | 0.4 | > 3000 | no intrinsic activity (intrinsic activity below 0.1 (10%) is classified as inactive or having no intrinsic activity) | no intrinsic activity (intrinsic activity below 0.1 (10%) is classified as inactive or having no intrinsic activity) | no intrinsic activity (intrinsic activity below 0.1 (10%) is classified as inactive or having no intrinsic activity) | – | – |
| C[C@@H]1CN(C(=O)[C@H](N)Cc2ccc3ccccc3c2)[C@@H](CCCNC(=N)N)CN1CCc1c[nH]c2ccccc12 [Example 8, N-(3-{1-(2(R)-Amino-3-naphthalen-2-yl-propionyl)-4-[2-(1H-indol-3-yl)-ethyl]-5(R)-methyl-piperazin-2(S)-yl}-propyl)-guanidine] | 162 | 2 | 2120 | 37 | attenuate the binding of both α-MSH and AgRP to MC4-R | 37 | 808 | 89 | 56 | 56 | Ag | > 1000 | 0.9 | > 100 | no intrinsic activity (intrinsic activity below 0.1 (10%) is classified as inactive or having no intrinsic activity) | no intrinsic activity (intrinsic activity below 0.1 (10%) is classified as inactive or having no intrinsic activity) | no intrinsic activity (intrinsic activity below 0.1 (10%) is classified as inactive or having no intrinsic activity) | full agonist | Inhibition at 1 μM (NDP-α-MSH) MC3-R (hMC3-R [2]; 1 μM compound): 27%; Inhibition at 1 μM (NDP-α-MSH) MC4-R (hMC4-R [3]; 1 μM compound): 93%; Inhibition at 1 μM (NDP-α-MSH) MC5-R (hMC5-R [4]; 1 μM compound): 51% |
| Cc1[nH]c2ccccc2c1CCN1C[C@H](CCCNC(=N)N)N(C(=O)[C@H](N)Cc2ccc3ccccc3c2)C[C@H]1C [Example 9, N-(3-{1-(2(R)-Amino-3-naphthalen-2-yl-propionyl)-5(R)-methyl-4-[2-(2-methyl-1H-indol-3-yl)-ethyl]-piperazin-2(S)-yl}-propyl)-guanidine] | 148 | 73 | 451 | 26 | attenuate the binding of both α-MSH and AgRP to MC4-R | 26 | 293 | 92 | 35 | 35 | Ag | 384 | 0.9 | > 384 | partial agonist (intrinsic activity between 0.1 (10%) and 0.7 (70%) is classified as a partial agonist) | no intrinsic activity (intrinsic activity below 0.1 (10%) is classified as inactive or having no intrinsic activity) | agonist (intrinsic activity of 0.7 (70%) or higher is classified as an agonist) | agonist (intrinsic activity of 0.7 (70%) or higher is classified as an agonist) | – |
| Cc1cc(Cl)ccc1C[C@@H](N)C(=O)N1C[C@@H](C)N(CCc2c[nH]c3ccccc23)C[C@@H]1CCCNC(=N)N [Example 10, N-(3-{1-(2(R)-Amino-(4-chloro-2-methyl-phenyl)-propionyl)-5(R)-methyl-4-[2-(1H-indol-3-yl)-ethyl]-piperazin-2(S)-yl}-propyl)-guanidine] | 1730 | 40 | 177 | 5 | attenuate the binding of both α-MSH and AgRP to MC4-R | 5 | 360 | 97 | 5 | 5 | pAg (“pAg” means partial agonist) | 7 | 1 | > 7 | no intrinsic activity (intrinsic activity below 0.1 (10%) is classified as inactive or having no intrinsic activity) | no intrinsic activity (intrinsic activity below 0.1 (10%) is classified as inactive or having no intrinsic activity) | no intrinsic activity (intrinsic activity below 0.1 (10%) is classified as inactive or having no intrinsic activity) | partial agonists; also recorded: full agonist | – |
| Cc1cc(Cl)ccc1C[C@@H](N)C(=O)N1C[C@@H](C)N(C(=O)Cc2ccc3ccccc3c2)C[C@@H]1CCCNC(=N)N [Example 11, N-{3-[1-[2(R)-amino-3-(4-chloro-2-dimethyl-phenyl)-propionyl]-5(R)-methyl-4-(2-naphthalen-2-yl-acetyl)-piperazin-2(S)-yl]-propyl}-guanidine] | 462 | 3 | 398 | 3 | attenuate the binding of both α-MSH and AgRP to MC4-R | 3 | 774 | 89 | 27 | 27 | Ag | 18 | 0.9 | 18 | partial agonist (intrinsic activity between 0.1 (10%) and 0.7 (70%) is classified as a partial agonist) | partial agonist (intrinsic activity between 0.1 (10%) and 0.7 (70%) is classified as a partial agonist) | agonist (intrinsic activity of 0.7 (70%) or higher is classified as an agonist) | agonist (intrinsic activity of 0.7 (70%) or higher is classified as an agonist) | – |
